In patent US6358885B1, “Substituted phenylheterocyclic herbicides” (Mississippi State University, priority 1992, dated 2002):

Experiments:
barley [1] = experiment: Test B preemergence/postemergence greenhouse plant response rating 0 to 10; format: in vivo, Hordeum vulgare; conditions: 0 to 10 scale
In short: (§1)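 Test chemicals, dissolved in a non-phytotoxic solvent, were applied to soil at planting and, at the same time, over foliage of seedlings at the one to four leaf stage.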

blackgrass = experiment: as above; format: in vivo, Alopecurus myosuroides; conditions: 0 to 10 scale
In short: as §1

cheatgrass = experiment: as above; format: in vivo, Bromus secalinus; conditions: 0 to 10 scale
In short: as §1

crabgrass = experiment: as above; format: in vivo, Digitaria spp.; conditions: 0 to 10 scale
In short: as §1

giant foxtail = experiment: as above; format: in vivo, Setaria faberii; conditions: 0 to 10 scale
In short: as §1

lambsquarters [2] = experiment: as above; format: in vivo, Chenopodium album; conditions: 0 to 10 scale
In short: as §1

rape = experiment: as above; format: in vivo, Brassica napus; conditions: 0 to 10 scale
In short: as §1

soybean [3] = experiment: as above; format: in vivo, Glycine max; conditions: 0 to 10 scale
In short: as §1

velvetleaf = experiment: as above; format: in vivo, Abutilon theophrasti; conditions: 0 to 10 scale
In short: as §1

purple nutsedge = experiment: as above; format: in vivo, Cyperus rotundus; conditions: 0 to 10 scale
In short: as §1

barley [4] = experiment: Test C preemergence/postemergence greenhouse plant response rating 0 to 100; format: in vivo, Hordeum vulgare; conditions: for Plant response rating Barley Igri: 62 g/ha, 0 to 100 scale
In short: (§2)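 Compounds in non-phytotoxic solvent went onto sandy loam before emergence (seeded one day earlier) or onto plants at the one-to-four leaf stage. Duck salad was treated via flood water (~2.5 cm, maintained) over silt loam.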

chickweed = experiment: as above; format: in vivo, Stellaria media; conditions: POSTEMERGENCE
In short: as §2

lambsquarters [5] = experiment: as above; format: in vivo, Chenopodium album; conditions: POSTEMERGENCE
In short: as §2

pigweed = experiment: as above; format: in vivo, Amaranthusretroflexus; conditions: for Plant response rating Pigweed: 62 g/ha, 0 to 100 scale
In short: as §2

ryegrass = experiment: as above; format: in vivo, Lolium multiflorum; conditions: for Plant response rating Ryegrass: 62 g/ha, 0 to 100 scale
In short: as §2

soybean [6] = experiment: as above; format: in vivo, Glycine max
In short: as §2

sugar beet = experiment: as above; format: in vivo, Beta vulgaris
In short: as §2

wild buckwheat = experiment: as above; format: in vivo, Polygonum convolvulus
In short: as §2

[7] = POSTEMERGENCE, 62 g/ha, 0 to 100 scale

Compound: CC(C)Oc1cc(-c2nn3c(c2Br)CCCC3)c(F)cc1Cl [Compound 38]
- Plant response rating, Barley (barley [1]; POSTEMERGENCE, Rate 50 g/ha): 4
- Plant response rating, Barley (barley [1]; POSTEMERGENCE, Rate 200 g/ha): 6
- Plant response rating, Barley (barley [1]; PREEMERGENCE, Rate 50 g/ha): 0
- Plant response rating, Barley (barley [1]; Rate 200 g/ha, PREEMERGENCE): 1
- Plant response rating, Blackgrass (blackgrass; POSTEMERGENCE, Rate 50 g/ha): 3
- Plant response rating, Blackgrass (blackgrass; POSTEMERGENCE, Rate 200 g/ha): 7
- Plant response rating, Blackgrass (blackgrass; PREEMERGENCE, Rate 50 g/ha): 1
- Plant response rating, Blackgrass (blackgrass; Rate 200 g/ha, PREEMERGENCE): 1
- Plant response rating, Cheatgrass (cheatgrass; POSTEMERGENCE, Rate 50 g/ha): 4
- Plant response rating, Cheatgrass (cheatgrass; POSTEMERGENCE, Rate 200 g/ha): 5
- Plant response rating, Cheatgrass (cheatgrass; PREEMERGENCE, Rate 50 g/ha): 0
- Plant response rating, Cheatgrass (cheatgrass; Rate 200 g/ha, PREEMERGENCE): 3
- Plant response rating, Crabgrass (crabgrass; POSTEMERGENCE, Rate 50 g/ha): 5
- Plant response rating, Crabgrass (crabgrass; POSTEMERGENCE, Rate 200 g/ha): 6
- Plant response rating, Crabgrass (crabgrass; PREEMERGENCE, Rate 50 g/ha): 0
- Plant response rating, Crabgrass (crabgrass; Rate 200 g/ha, PREEMERGENCE): 8
- Plant response rating, Giant foxtail (giant foxtail; POSTEMERGENCE, Rate 50 g/ha): 5
- Plant response rating, Giant foxtail (giant foxtail; PREEMERGENCE, Rate 50 g/ha): 2
- Plant response rating, Giant foxtail (giant foxtail; Rate 200 g/ha, POSTEMERGENCE): 7
- Plant response rating, Giant foxtail (giant foxtail; Rate 200 g/ha, PREEMERGENCE): 9
- Plant response rating, Lambsquarter (lambsquarters [2]; POSTEMERGENCE, Rate 50 g/ha): 10
- Plant response rating, Lambsquarter (lambsquarters [2]; PREEMERGENCE, Rate 50 g/ha): 10
- Plant response rating, Lambsquarter (lambsquarters [2]; Rate 200 g/ha, POSTEMERGENCE): 10
- Plant response rating, Lambsquarter (lambsquarters [2]; Rate 200 g/ha, PREEMERGENCE): 10
- Plant response rating, Rape (rape; POSTEMERGENCE, Rate 50 g/ha): 8
- Plant response rating, Rape (rape; PREEMERGENCE, Rate 50 g/ha): 8
- Plant response rating, Rape (rape; Rate 200 g/ha, POSTEMERGENCE): 10
- Plant response rating, Rape (rape; Rate 200 g/ha, PREEMERGENCE): 8
- Plant response rating, Soybean (soybean [3]; POSTEMERGENCE, Rate 50 g/ha): 5
- Plant response rating, Soybean (soybean [3]; PREEMERGENCE, Rate 50 g/ha): 0
- Plant response rating, Soybean (soybean [3]; Rate 200 g/ha, POSTEMERGENCE): 7
- Plant response rating, Soybean (soybean [3]; Rate 200 g/ha, PREEMERGENCE): 4
- Plant response rating, Velvetleaf (velvetleaf; POSTEMERGENCE, Rate 50 g/ha): 6
- Plant response rating, Velvetleaf (velvetleaf; PREEMERGENCE, Rate 50 g/ha): 0
- Plant response rating, Velvetleaf (velvetleaf; Rate 200 g/ha, POSTEMERGENCE): 10
- Plant response rating, Velvetleaf (velvetleaf; Rate 200 g/ha, PREEMERGENCE): 7
- Plant response rating, Nutsedge (purple nutsedge; POSTEMERGENCE, Rate 50 g/ha): 3
- Plant response rating, Nutsedge (purple nutsedge; PREEMERGENCE, Rate 50 g/ha): 0
- Plant response rating, Nutsedge (purple nutsedge; Rate 200 g/ha, POSTEMERGENCE): 4
- Plant response rating, Nutsedge (purple nutsedge; Rate 200 g/ha, PREEMERGENCE): 0
- Plant response rating Barley Igri (barley [4]; POSTEMERGENCE): 50
- Plant response rating (0 to 100), Barley Igri (barley [4]; POSTEMERGENCE, Rate 1 g/ha): 10
- Plant response rating Barley Igri (barley [4]; PREEMERGENCE): 0
- Plant response rating (0 to 100), Barley Igri (barley [4]; PREEMERGENCE, Rate 1 g/ha): 0
- Plant response rating (0 to 100), Barley Igri (barley [4]; PREEMERGENCE, Rate 4 g/ha): 0
- Plant response rating (0 to 100), Barley Igri (barley [4]; Rate 4 g/ha, POSTEMERGENCE): 30
- Plant response rating (0 to 100), Barley Igri (barley [4]; Rate 16 g/ha, POSTEMERGENCE): 40
- Plant response rating (0 to 100), Barley Igri (barley [4]; Rate 16 g/ha, PREEMERGENCE): 0
- Plant response rating, Chickweed (chickweed; 62 g/ha, 0 to 100 scale): 30
- Plant response rating (0 to 100), Chickweed (chickweed; Rate 1 g/ha): 0
- Plant response rating (0 to 100), Chickweed (chickweed; Rate 4 g/ha): 10
- Plant response rating (0 to 100), Chickweed (chickweed; Rate 16 g/ha): 20
- Plant response rating Lambsquarters (lambsquarters [5]; 62 g/ha, 0 to 100 scale): 70
- Plant response rating (0 to 100), Lambsquarters (lambsquarters [5]; Rate 1 g/ha): 60
- Plant response rating (0 to 100), Lambsquarters (lambsquarters [5]; Rate 4 g/ha): 60
- Plant response rating (0 to 100), Lambsquarters (lambsquarters [5]; Rate 16 g/ha): 70
- Plant response rating Pigweed (pigweed; POSTEMERGENCE): 100
- Plant response rating (0 to 100), Pigweed (pigweed; POSTEMERGENCE, Rate 1 g/ha): 10
- Plant response rating (0 to 100), Pigweed (pigweed; POSTEMERGENCE, Rate 4 g/ha): 30
- Plant response rating Pigweed (pigweed; PREEMERGENCE): 100
- Plant response rating (0 to 100), Pigweed (pigweed; PREEMERGENCE, Rate 1 g/ha): 0
- Plant response rating (0 to 100), Pigweed (pigweed; PREEMERGENCE, Rate 4 g/ha): 0
- Plant response rating (0 to 100), Pigweed (pigweed; Rate 16 g/ha, POSTEMERGENCE): 100
- Plant response rating (0 to 100), Pigweed (pigweed; Rate 16 g/ha, PREEMERGENCE): 90
- Plant response rating Ryegrass (ryegrass; POSTEMERGENCE): 50
- Plant response rating (0 to 100), Ryegrass (ryegrass; POSTEMERGENCE, Rate 1 g/ha): 0
- Plant response rating (0 to 100), Ryegrass (ryegrass; POSTEMERGENCE, Rate 4 g/ha): 10
- Plant response rating Ryegrass (ryegrass; PREEMERGENCE): 0
- Plant response rating (0 to 100), Ryegrass (ryegrass; PREEMERGENCE, Rate 1 g/ha): 0
- Plant response rating (0 to 100), Ryegrass (ryegrass; PREEMERGENCE, Rate 4 g/ha): 0
- Plant response rating (0 to 100), Ryegrass (ryegrass; Rate 16 g/ha, POSTEMERGENCE): 30
- Plant response rating (0 to 100), Ryegrass (ryegrass; Rate 16 g/ha, PREEMERGENCE): 0
- Plant response rating, Soybean (soybean [6]; [7]): 60
- Plant response rating (0 to 100), Soybean (soybean [6]; POSTEMERGENCE, Rate 1 g/ha): 20
- Plant response rating (0 to 100), Soybean (soybean [6]; POSTEMERGENCE, Rate 4 g/ha): 20
- Plant response rating (0 to 100), Soybean (soybean [6]; PREEMERGENCE, Rate 1 g/ha): 0
- Plant response rating (0 to 100), Soybean (soybean [6]; PREEMERGENCE, Rate 4 g/ha): 0
- Plant response rating (0 to 100), Soybean (soybean [6]; Rate 16 g/ha, POSTEMERGENCE): 40
- Plant response rating (0 to 100), Soybean (soybean [6]; Rate 16 g/ha, PREEMERGENCE): 0
- Plant response rating, Sugar beet (sugar beet; [7]): 100
- Plant response rating (0 to 100), Sugar beet (sugar beet; POSTEMERGENCE, Rate 1 g/ha): 20
- Plant response rating (0 to 100), Sugar beet (sugar beet; POSTEMERGENCE, Rate 4 g/ha): 70
- Plant response rating (0 to 100), Sugar beet (sugar beet; PREEMERGENCE, Rate 1 g/ha): 0
- Plant response rating (0 to 100), Sugar beet (sugar beet; PREEMERGENCE, Rate 4 g/ha): 0
- Plant response rating (0 to 100), Sugar beet (sugar beet; Rate 16 g/ha, POSTEMERGENCE): 100
- Plant response rating (0 to 100), Sugar beet (sugar beet; Rate 16 g/ha, PREEMERGENCE): 30
- Plant response rating, Wild buckwheat (wild buckwheat; [7]): 100
- Plant response rating (0 to 100), Wild buckwheat (wild buckwheat; POSTEMERGENCE, Rate 1 g/ha): 40
- Plant response rating (0 to 100), Wild buckwheat (wild buckwheat; POSTEMERGENCE, Rate 4 g/ha): 100
- Plant response rating (0 to 100), Wild buckwheat (wild buckwheat; PREEMERGENCE, Rate 1 g/ha): 0
- Plant response rating (0 to 100), Wild buckwheat (wild buckwheat; PREEMERGENCE, Rate 4 g/ha): 0
- Plant response rating (0 to 100), Wild buckwheat (wild buckwheat; Rate 16 g/ha, POSTEMERGENCE): 100
- Plant response rating (0 to 100), Wild buckwheat (wild buckwheat; Rate 16 g/ha, PREEMERGENCE): 20
